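48-hour exposure; five concentrations; linearly interpolated endpoints. TGI: total growth inhibition.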
Legend:
Assay in all cases: NCI-60 cell line screen, 48 h
[1] = system: 786-0 renal
[2] = system: A498 renal
[3] = system: A549 NSCLC
[4] = system: ACHN renal
[5] = system: BT-549 breast
[6] = system: CAKI-1 renal
[7] = system: CCRF-CEM leukemia
[8] = system: COLO 205 colon
[9] = system: DU-145 prostate
[10] = system: EKVX NSCLC
[11] = system: HCC-2998 colon
[12] = system: HCT-116 colon
[13] = system: HCT-15 colon
[14] = system: HL-60(TB) leukemia
[15] = system: HOP-62 NSCLC
[16] = system: HOP-92 NSCLC
[17] = system: HS 578T breast
[18] = system: HT29 colon
[19] = system: IGROV1 ovarian
[20] = system: K-562 leukemia
[21] = system: KM12 colon
[22] = system: LOX IMVI melanoma
[23] = system: M14 melanoma
[24] = system: MALME-3M melanoma
[25] = system: MCF7 breast
[26] = system: MDA-MB-231 breast
[27] = system: MDA-MB-435
[28] = system: NCI-H226 lung
[29] = system: NCI-H23 lung
[30] = system: NCI-H460 lung
[31] = system: NCI-H522 lung
[32] = system: NCI/ADR-RES ovarian
[33] = system: OVCAR-3 ovarian
[34] = system: OVCAR-4 ovarian
[35] = system: OVCAR-5 ovarian
[36] = system: OVCAR-8 ovarian
[37] = system: PC-3 prostate
[38] = system: RPMI-8226 leukemia
[39] = system: RXF 393 renal
[40] = system: SF-268 CNS
[41] = system: SF-295 CNS
[42] = system: SF-539 CNS
[43] = system: SK-MEL-2 melanoma
[44] = system: SK-MEL-28 melanoma
[45] = system: SK-MEL-5 melanoma
[46] = system: SK-OV-3 ovarian
[47] = system: SN12C renal
[48] = system: SNB-19 CNS
[49] = system: SNB-75 CNS
[50] = system: SW-620 colon
[51] = system: T-47D breast
[52] = system: TK-10 renal
[53] = system: U251 CNS
[54] = system: UACC-257 melanoma
[55] = system: UACC-62 melanoma
[56] = system: UO-31 renal

NC(=O)c1[nH]cnc1/N=N/SCC(N)C(=O)O (stereo unspecified)
TGI [1]: > 100 µM | TGI [2]: > 100 µM | TGI [3]: > 100 µM | TGI [4]: > 100 µM | TGI [5]: > 100 µM | TGI [6]: > 100 µM | TGI [7]: > 100 µM | TGI [8]: > 100 µM | TGI [9]: > 100 µM | TGI [10]: > 100 µM | TGI [11]: > 30.6 µM | TGI [12]: > 100 µM | TGI [13]: > 100 µM | TGI [14]: 6.66 µM | TGI [15]: > 100 µM | TGI [16]: > 100 µM | TGI [17]: > 100 µM | TGI [18]: > 100 µM | TGI [19]: > 100 µM | TGI [20]: > 100 µM | TGI [21]: > 62.5 µM | TGI [22]: > 100 µM | TGI [23]: > 100 µM | TGI [24]: > 100 µM | TGI [25]: > 100 µM | TGI [26]: > 54.9 µM | TGI [27]: > 100 µM | TGI [28]: > 100 µM | TGI [29]: > 100 µM | TGI [30]: > 100 µM | TGI [31]: > 100 µM | TGI [32]: > 100 µM | TGI [33]: > 100 µM | TGI [34]: > 100 µM | TGI [35]: > 100 µM | TGI [36]: > 100 µM | TGI [37]: > 100 µM | TGI [38]: > 100 µM | TGI [39]: > 100 µM | TGI [40]: > 100 µM | TGI [41]: > 75.1 µM | TGI [42]: > 100 µM | TGI [43]: > 100 µM | TGI [44]: > 100 µM | TGI [45]: > 100 µM | TGI [46]: > 100 µM | TGI [47]: > 58 µM | TGI [48]: > 100 µM | TGI [49]: > 100 µM | TGI [50]: > 100 µM | TGI [51]: > 100 µM | TGI [52]: > 100 µM | TGI [53]: > 100 µM | TGI [54]: > 100 µM | TGI [55]: > 100 µM | TGI [56]: > 93.9 µM

— PubChem BioAssay (NCI)
